One experiment has as its system plasma cholesterol. As to the kind of experiment: Lamb feeding study, plasma cholesterol (Example II, Table B). It is filed as in vivo, lambs. How it is done: In view of the encouraging results of Example I, a large mammal study was carried out with lambs. HMB was administered in the form of Ca-HMB.
Cross-bred lambs were obtained from a research flock. Males were selected from a pool of 108 rams while females were selected from a pool of 63 females. Selection was based on weight range, breed and previous performance. Breeding consisted of Dorset, Polypay and Suffold crosses. Males were divided into 5 weight blocks and females into 3 weight blocks. The two heaviest male blocks contained 27 lambs, allotted to 3 pens. All other blocks contained 18 lambs, allotted to 2 pens. Animals were weighed on consecutive days prior to starting the experiment. All animals were shorn 100 days into the experiment. The animals were housed in a single confinement unit with uniform pens. The feeders were concrete bunks with water supplied by several nipple waterers per pen. Dirt flooring was bedded with oat straw when necessary. Weight blocks were placed in adjacent pens with treatment randomly assigned to the blocks. The ration was complete in all nutrients for growing sheep. The diet was formulated to contain protein in excess of the normal requirement in an effort to assure that protein was not a limiting factor for any growth response. The feeding schedule consisted of two feedings per day with the amount controlled so that the animals had eaten all the feed from the previous feeding before being fed again. Also with the feed allotment, a top-dressing of 20 g of either a control premix containing HMB was added at the equivalent of 0.5 gram per animal per day and 1.5 gram per animal per day.
Ca-HMB was prepared by minor modification of the method of Coffman, et al. J. Am. […] Each batch was given a lot number and the purity assessed by high performance liquid chromatography. A single peak was measured when HMB was chromatographed on a C18 column and eluted with 0.01M phosphate buffer, pH 7.0. […]
Blood was collected from each animal. The plasma was analyzed for cholesterol using an Abbott Spectrum Diagnostic system. […] A linear effect of HMB level was evaluated.

The next experiment deals with aorta. As to the kind of experiment: Pig feeding study, aorta streaking (pre-atherosclerotic lesions) (Example III, Table C). It counts as in vivo, pigs. The following applies: for Aorta Streaking: 0 least severe to 3.2 most severe, control 1.87. On the procedure:
A further large mammal study was carried out with pigs. Pigs comprise test animals which are more similar in certain respects to humans than ruminants.
Control: 60 g. of calcium
The pigs were housed in pens of two animals each and were allowed ad libitum access to food and water. Pigs were approximately 160 lbs. at the start of the experiment and were 240 lbs. at the end. All pigs were castrate males. At day 28 and day 43 of the experiment blood was collected from the anterior vena cava by venipuncture. Blood was collected into EDTA containing tubes, centrifuged and frozen until analyzed. At approximately 100 days of the experiment half of the animals (32) were slaughtered, and at 120 days the remaining 32 animals were slaughtered. At the time of slaughter the abdominal aorta was dissected out and external fat removed. The aorta was then split lengthwise and 1/2 fixed in formaldehyde for 48 hours. At this time aortas were removed, stretched over a 6 inch stick, washed in ethanol and stained with a lipid stain for 2 hours. After a 1 hour wash aortas were blotted and examined. All the aortas from a group were laid out on a white bench and arranged in order from least sever to most sever. The least sever had no dark red streaks on the aorta or around the small vertebral vessels leaving the aorta. The most sever lesions had multiple streaks in the middle of the aorta and dark red deposits in turbulent areas such as the branching of vessels from the aorta. The ordered aortas were then assigned a consecutive decimal number. The first (least severe) was assigned 0 and the most severe was assigned 3.2 Plasma cholesterol and triglycerides were measured by an enzyme-colorimetric assay (Sigma).
statistical analysis was accomplished by the general linear model procedure of the Statistical Analysis System (SAS). The model included the main effects of treatment and pen number. T-tests were conducted from the ANOVA standard error, to compare the HMB treatments to the control. […] It appeared that HMB can partially prevent the formation of pre-atherosclerotic lesions. No effect of KIC was noted relative to any parameter.

Experiment [1] can be described thus: Human dose-response study, body weight and body fat (Example V, Table E). It is filed as in vivo, humans. The following applies: study combined with Example IV. How it is done:
Higher dose levels than in Example IV of Ca-HMB were tested in humans. The objective was to obtain an indication of whether higher doses could be safely administered, and also whether higher doses might provide a greater reduction in total cholesterol and LDL cholesterol.
Normal humans were used in the study. Ca-HMB was administered in 250 mg capsules, and the subjects were instructed to take the capsules in 4 equal doses daily. No control of diet was attempted except they were instructed to eat as they normally would. On alternate days the subjects had blood drawn before the morning meal and before they took the morning HMB dose. Four subjects were studied for dose level of 05., 1, 2 and 4 grams per day.
Results from all samples of each subject were subjected to linear regression and the slope and intercept used to calculate the % change in concentration after 8 days on treatment. The percentage changes were then subjected to ANOVA-regression to determine if there was a linear effect of dosage on the parameter. The dose-response effect (p<) is listed in the linear effect column of Table E.

Experiment [2] has as its system acetate incorporation into cholesterol by the rat liver. The following applies: 0.5 g/kg body weight for 2 and 4 days; cited from earlier work.

Results on one molecule are retold here after patent US5360613A, “Method of reducing blood levels of total cholesterol and low-density lipoprotein cholesterol” (Iowa State University Research Foundation, Inc., priority 1993, dated 1994).

Take `CC(C)(O)CC(=O)O` [HMB, β-hydroxy-β-methylbutyric acid]: the Plasma Cholesterol with plasma cholesterol (0.5 g HMB daily (Ca-HMB), control 54.3, linear effect 0.05) is on record as 51.3; in the experiment with plasma cholesterol (1.5 g HMB daily (Ca-HMB), control 54.3, linear effect 0.05), 48.1; with plasma cholesterol (oral consumption, lambs) it was “decreased plasma cholesterol”. The “deposits of fat in the aorta” value in the experiment on aorta (HMB-fed pigs) is “lower deposits of fat in the aorta”. Besides, the “Aorta Streaking” value was 1.23 with aorta (dietary .01%, HMB C vs. .01% p .12) and 1.18 with aorta (dietary .05%, HMB p .06, KIC ns). The “effect on body fat” value in experiment [1] is on record as “extremely suggestive of an effect on body fat”. Also, the “rate of acetate incorporation into cholesterol by the rat liver” value in experiment [2] is given as “not significantly lowered”.
